Patent US20150297623A1, “METHODS FOR TREATMENT OF PRIMARY CANCER AND CANCER METASTASIS” (THE BOARD OF REGENTS OF THE UNIVERSITY OF TEXAS SYSTEM, priority 2012, published 2015)

Key:
MDA-MB-231 cells [1] = test: Transwell cell migration assay, MDA-MB-231; assay type: cell-based, human; conditions: for effect on migration of MDA-MB-231 cells: 200 μM
Experimental: (§1) MLO-Y4 cells were seeded onto 150 mm dishes (Corning) and incubated for 24 hr to allow attachment, after which media was removed and changed with α-modified essential medium (α-MEM) without phenol red (Gibco) supplemented with 2.5% FBS and 2.5% BCS (Hyclone). MLO-Y4 cells were incubated in the absence or present of 20 μM AD in a 5% CO2 incubator at 37° C. for 48 hr and the CM was collected.
(§2) Migration assays were performed in transwell membrane filter inserts in 24-well tissue culture plates (BD Biosciences San Jose, Calif., USA). The transwell membrane filter inserts contained 6.5-mm diameter, 8-μm pore size, […] thick polycarbonate membranes. The breast cancer cell lines were harvested and resuspended in CM from MLO-Y4 cells with or without other compounds. Five-hundred microliter breast cancer cell suspensions were added to the upper side of the inserts at a density of 10×10^4 cells/insert and 750 μl CM with or without other compounds was added to the lower wells. Cells were incubated at 37° C. for 18-20 hr. […] The number of migrated cells in 5 fields of view per insert was counted under a light microscope at magnification 10×.

MDA-MB-231 cells [2] = test: WST-1 cell proliferation assay; assay type: cell-based, human; conditions: for effect on cell proliferation: concentrations as used in migration assay / various concentrations
Experimental: Cell viability was assessed using WST-1 (Water Soluble Tetrazolium salts) assay (Roche). A single cell suspension was plated in 96-well plates at 2.0×10^4 cells/well and allowed to attach to the plates at 37° C. for 2 hr. […] After the treatment, cell viability was measured by adding 10 μl of Cell Proliferation Reagent WST-1 to each well and incubated for 1 hr at 37° C. in a 5% CO2 incubator. The cell proliferation was measured at an […] wavelength of 450 nm with a Synergy HT Multi-Mode Microplate Reader (Biotek).

[3] = tested on: Py8119 mouse mammary carcinoma cells; test: Transwell cell migration assay, Py8119; assay type: cell-based
Experimental: as §1, §2

MDA-MB-231 cells [4] = test: Orthotopic MDA-MB-231 xenograft in mammary fat pads of nude mice; assay type: in vivo, mouse; conditions: for tumor growth rate in comparison to the control group: 400 μmol per mouse IP three times a week
Experimental: To test if ATP has a similar, inhibitory effect on tumor growth in vivo, the inventors used an orthotopic mouse model. MDA-MB-231 cells were orthotopically implanted into the mammary fat pads of athymic female nude mice. After the mice were randomly assigned into 3 different treatment groups, the mice were treated with or without ATPγS or adenosine. The ATPγS and adenosine were administered through IP injections at 400 μmol per mouse three times a week. The control mice were injected IP with saline. Dosages were determined by a previous study showing no toxicity from IP injections of up to 50 mM of adenine nucleotides into mice for 10 days. Tumor sizes were measured once every three to four days throughout the treatment period. At the end of the study, the tumors were excised and weighed. […] The reduced mean tumor volume of the treatment group was statistically significant after 17 days of ATPγS treatment. […] Additionally, the adenosine-treated group had 50% increased tumor sizes compared to the control group tumors (FIG. 7B).
MDA-MB-231 cells were injected subcutaneously in the mammary fat pad of 4-week-old female nu/nu athymic nude mice. Each mouse received bilateral subcutaneous inoculation in both the left and right inguinal mammary fat pad areas with 100 μl of cell suspension containing ˜1×10^7 cells/ml in serum-free media. Animals were randomly assigned to 3 different groups, and solid tumors were allowed to form up to about 5 mm^3 volume before treatments began. ATPγS, at 400 μmol/500 μl saline, adenosine, at 400 μmol/500 μl saline, or 500 μl of saline, were administered intraperitoneally (IP) three times a week for 3 weeks. The growth of xenograft tumors was monitored twice a week and tumor size was measured with a caliper in two dimensions. Tumor volumes were calculated with the equation V=(L×W^2)×0.5 (mm^3), where L is length and W is width of a tumor.

MDA-MB-231 cells [5] = test: Soft agar colony formation assay (anchorage-independent growth); assay type: cell-based, human; conditions: about 2 weeks (control 82±4.5)
Experimental: For anchorage-independent cell growth, MDA-MB-231 cells were plated in 0.4% agarose with complete medium supplemented with either 100 μM ATPγS or 200 μM adenosine on top of a 0.8% agarose base supplemented with complete medium. Cells were maintained for about 2 weeks before staining with p-iodonitrotetrazolium violet (Sigma-Aldrich, St. Louis, Mo.). Images were captured by using a scanner and the numbers of colonies were counted.

[6] = tested on: Py8119 mammary carcinoma cells; test: Intratibial injection of Py8119/Luc-GFP cells, bioluminescence imaging; assay type: in vivo, mouse
Experimental: To assess how systemic treatment with ATPγS may affect the growth of breast cancer cells in the bone microenvironment of a syngeneic host, the inventors performed intratibial injections in wild-type C57b1/6 female mice using the mouse mammary carcinoma cell line Py8119. The mammary tumor cells were injected into the right tibias of the female mice, and the tumor growth was monitored with whole animal imaging once a week for 4 weeks. The mice were treated with IP injection of saline supplemented with or without 400 μmol ATPγS three times a week. […] Quantification data (lower panels) further confirmed the significant decrease of tumor growth in bone with the treatment of ATPγS. Mice were anesthetized by isoflurane and were also given buprenorpine-HCl (0.3 mg/ml) as an analgesic. Py8119 cells expressing Luc-GFP (1×10^5 in 20 μl of PBS) were inoculated into the bone marrow area of right tibias through the pre-made hole by a Hamilton syringe fitted with a 30-gauge needle. […] Intratibial tumor growth was monitored with bioluminescence imaging with a Xenogen IVIS-Spectrum imaging system (Xenogen, Alameda, Calif., USA) every week starting from 3 days after tumor cell inoculation. […] Analysis was performed using LivingImage software (Xenogen) by measurement of photon flux (measured in photons/sec/cm^2/steradian) with a region of interest (ROI) drawn around the bioluminescence signal to be measured. […]

## 2′(3′)-O-(4-Benzoylbenzoyl)adenosine-5′-triphosphate tri(triethylammonium) salt [BzATP]
MDA-MB-231 cells [1]; compound 10 μM
  number of migrating MDA-MB-231 cells: 99±7.8 cells
MDA-MB-231 cells [1]; compound 100 μM
  number of migrating MDA-MB-231 cells: 64±4.4 cells
MDA-MB-231 cells [1]; compound 200 μM
  number of migrating MDA-MB-231 cells: 39±2.6 cells
MDA-MB-231 cells [2]; 400 μM
  effect on cell proliferation (WST-1): significant reduction
MDA-MB-231 cells [2]; concentrations 1-200 μM
  effect on cell proliferation (WST-1): minimal effects

## CCOc1nc2c(N)ncnc2n1CC [ANR94, 8-Ethoxy-9-ethyl-9H-purin-6-amine]
MDA-MB-231 cells [1]; 100 μM ANR94, 200 μM ATP, 20 hr
  effect on ATP-increased migration of MDA-MB-231 cells: attenuated
MDA-MB-231 cells [1]; 100 μM ANR94, 200 μM adenosine, 20 hr
  effect on adenosine-increased migration of MDA-MB-231 cells: attenuated

## CCN(CC)c1ncnc2c1ncn2[C@@H]1O[C@H](COP(=O)(O)OP(=O)(O)C(Br)(Br)P(=O)(O)O)[C@@H](O)[C@H]1O [ARL67156]
MDA-MB-231 cells [1]; 200 μM ARL67156, 200 μM ATP
  effect on the stimulatory effect of higher dosage of ATP on migration: attenuated
MDA-MB-231 cells [2]
  effect on cell proliferation: not caused by changes in cell proliferation

## Nc1ncnc2c1ncn2[C@@H]1O[C@H](COP(=O)(O)OP(=O)(O)OP(=O)(O)O)[C@@H](O)[C@H]1O [ATP, adenosine-5′-triphosphate]
MDA-MB-231 cells [1]; 200 μM ATP added to CM from non-AD-treated MLO-Y4 cells (control 127±2)
  number of migrated MDA-MB-231 cells: 188±33.5
MDA-MB-231 cells [1]; 200 μM ATP added to CM-AD (control 88±10.7)
  number of migrated MDA-MB-231 cells: 153±21.1
MDA-MB-231 cells [1]; 20 hr
  effect on migration of MDA-MB-231 cells: increased migration
MDA-MB-231 cells [1]; compound 50 μM
  number of migrating MDA-MB-231 cells: 100±17.7 cells
MDA-MB-231 cells [1]; compound 200 μM
  number of migrating MDA-MB-231 cells: 257±26 cells
MDA-MB-231 cells [1]; compound 400 μM
  number of migrating MDA-MB-231 cells: 240±0.9 cells
[3]; 400 μM ATP in CM (control 254±25.9)
  number of migrated Py8119 cells: 159±7.8 cells
[3]; 400 μM ATP in CM-AD (control 127±0.3)
  number of migrated Py8119 cells: 88±10.3 cells
MDA-MB-231 cells [2]
  effect on cell proliferation: not caused by alterations of cell proliferation

## Nc1ncnc2c1ncn2[C@@H]1O[C@H](COP(=O)([O-])OP(=O)([O-])OP([O-])([O-])=S)[C@@H](O)[C@H]1O.[Li+].[Li+].[Li+].[Li+] [ATPγS, adenosine 5′-[γ-thio]triphosphate tetralithium salt]
MDA-MB-231 cells [4]; 400 μmol ATPγS IP three times a week, post mortem
  decrease of size of excised tumors vs control group: over 4 fold
MDA-MB-231 cells [4]
  tumor growth rate in comparison to the control group: significantly reduced
MDA-MB-231 cells [1]; 100 μM ATPγS in control CM (control 112±2.4)
  number of migrated MDA-MB-231 cells: 63±9.6 cells
MDA-MB-231 cells [1]; compound 50 μM
  number of migrating MDA-MB-231 cells: 46±9.3 cells
MDA-MB-231 cells [1]; compound 100 μM
  number of migrating MDA-MB-231 cells: 33±3.3 cells
MDA-MB-231 cells [1]; compound 200 μM
  number of migrating MDA-MB-231 cells: 11±1.7 cells
MDA-MB-231 cells [1]; compound 400 μM
  number of migrating MDA-MB-231 cells: 9±1.5 cells
MDA-MB-231 cells [5]; 100 μM ATPγS
  colony formation of MDA-MB-231 cells in soft agar: 47±6.2 colonies
[3]; 100 μM ATPγS in CM / CM-AD
  effect on migration of Py8119 cells: decreased
[6]; 400 μmol ATPγS IP three times a week
  tumor growth in the tibias (bioluminescence): significantly inhibited
[6]; 400 μmol ATPγS IP, after 4 weeks of treatment
  tumor burden (bioluminescence signals, dorsal and ventral): dramatic reduction

## CCCn1c(=O)c2[nH]c(-c3ccc(OCC(=O)Nc4ccc(C#N)cc4)cc3)nc2n(CCC)c1=O [MRS1754, N-(4-Cyanophenyl)-2-[4-(2,3,6,7-tetrahydro-2,6-dioxo-1,3-dipropyl-1H-purin-8-yl)phenoxy]-acetamide]
MDA-MB-231 cells [1]; 500 nM MRS1754
  effect on the inhibitory effect of CM-AD on cell migration: further augmented the inhibitory effect
MDA-MB-231 cells [1]; 500 nM MRS1754, 200 μM ATP, in CM / CM-AD
  effect on the stimulatory effect of ATP on migration: attenuated
MDA-MB-231 cells [1]; 500 nM MRS1754, 200 μM adenosine, in CM
  effect on adenosine-induced increase of MDA-MB-231 cell migration: completely attenuated
MDA-MB-231 cells [1]; 500 nM MRS1754, apyrase 5 units/ml, in CM
  effect on the increase of migration caused by apyrase treatment: significantly attenuated
[3]
  effect on adenosine-enhanced migration of Py8119 cells: inhibited

## Nc1ncnc2c1ncn2[C@@H]1O[C@H](CO)[C@@H](O)[C@H]1O [adenosine]
MDA-MB-231 cells [4]; 400 μmol adenosine IP three times a week, post mortem
  increase of tumor sizes compared to control group: 50%
MDA-MB-231 cells [4]
  tumor growth rate in comparison to the control group: increase
MDA-MB-231 cells [1]; 200 μM adenosine in CM from MLO-Y4 cells
  effect on MDA-MB-231 cell migration: increased
MDA-MB-231 cells [1]; 20 hr
  effect on migration of MDA-MB-231 cells: increases
MDA-MB-231 cells [5]; 200 μM adenosine
  colony formation of MDA-MB-231 cells in soft agar: 132±13.7 colonies
MDA-MB-231 cells [2]
  effect on cell proliferation: minimal effects

## Nc1ncnc2c1ncn2[C@@H](C=O)O[C@@H](C=O)COP(=O)(O)OP(=O)(O)OP(=O)(O)O [oATP]
MDA-MB-231 cells [1]; 300 μM oATP
  effect on the inhibitory effect of CM-AD on MDA-MB-231 cell migration: significantly attenuated

## apyrase
MDA-MB-231 cells [1]; apyrase 5 units/ml in CM-AD
  increase of MDA-MB-231 cell migration: 7.7 fold
MDA-MB-231 cells [1]; apyrase 5 units/ml in untreated CM
  increase of MDA-MB-231 cell migration: 2.5 fold
